Assay [1] concerns carrageenan-induced foot paw edema. Nature of the assay: Carrageenan-induced rat foot paw edema assay. Format: in vivo, male Wistar rats. The following applies: for ED30 of edema inhibition: p.o. On the procedure:
The edema was induced in male Wistar rats (140-150 g) by subcutaneous injection of carrageenan (50 μl of 1% suspension) into the right hind paw. The formed inflammation was measured with plethysmometer (Ugo Basile, type: 7150). The treated paw was placed into the plethysmometer (filled with 0.3% additives in 0.5% saline), the level of the inflammation was detected by the volume of the displaced solution. This volume was compared with the initial preinjection paw volume. Level of the inflammation (ml)=volume after CA treatment (ml)−volume before CA treatment (ml) The inflammation induced in treated group was compared to control group (which was given only vehicle). The sample materials and the solvent were dosed per os via gastro-sonde 1 hour before the CA treatment. The volume of the treated limb was measured at 3h and 5h after CA treatments. The change of the inflammation level was calculated as follows: [formula]

Assay [2] relates to carrageenan induced inflammatory hyperalgesia. The experiment in a line: Carrageenan induced inflammatory hyperalgesia (Randall-Selitto), chronic model. It counts as in vivo, male SPRD rats. The following applies: 30 mg/kg p.o. The method, then: (§1) Edema was induced by injection of Carrageenan (CA) into plantar surface of right hind paw. Male SPRD rats (weighing 140-190 g) were used n=6-8/group). Then the mechanical pain threshold of the inflamed hind paw was determined with an analgesimeter ((Ugo Basile, type: 37215).
(§2) This assay monitors the decrease of the pain threshold, and the time depending changing of the pain by mechanical pain stimulus. Analgesics can increase the pain threshold of the inflamed hinds and this effect is in terms of percentage of reversal.
(§3) Untreated right hind paw was compressed with a progressively increasing pressure. The pressure was recorded (in grams) when the animal first vocalized or made a vigorous attempt to remove the paw. It was determined to baseline threshold of the untreated paw. (average: 80-110 g). After it the animals were treated with carrageenan. After the treatment the edema and the threshold were checked in a given times. […] (Average of inflammation induced pain threshold was 20-25 g, this means 65-80% decrease related to the baseline.)
(§4) The chronic phase of the inflammantion and the decreasing of the threshold were induced by higher dose of CA. Inflammation induced threshold decreasing was measured 24 hours after the CA injection (150 μl of 2% solution). ) After it the animals were treated with test compounds and valdecoxib (30-30 mg/kg p.o.). Change in the threshold was checked at 1 h, 2 h, and 3 h following drug administration. In both model used control groups were treated orally only with solvents at the time of treatments. In both protocol the effects of the test compounds were calculated in percentage reversal of mechanical hiperalgesia: [formula] • T3h: In acute model, the threshold in the control group at 3 h after the CA injection (in gram) • T24h: In chronic model, the threshold in the control group at 24 h after the CA injection (in gram) • T0h: The threshold before the CA injection (in gram) • TXh In acute model, at 3h after the CA injection • TXh=In chronic model, at 25 h, 26 h, 27 h after the CA injection

The test system is the same in assay [3]. The experiment in a line: Carrageenan induced inflammatory hyperalgesia (Randall-Selitto), acute model. Format: in vivo, male SPRD rats. The settings on record: Acut model, 10 mg/kg p.o. The method, then: as §1, §2, §3
1 hour after the CA injection (100 μl of 2% solution) the animals were treated with test compounds and valdecoxib (10-10 mg/kg p.o.). […]
as §4

The next assay has as its system isolated rabbit heart. The experiment in a line: Cardiac effects on the isolated rabbit heart (Langendorff, coronary flow). Also on record: species or system New Zealand white rabbits. The settings on record: 1, 3 and 10 μM, 4-4 hearts. On the procedure:
New Zealand white rabbits weighing 1.5-2 kg were used. The animals were exsanguinated and after thoracotomy the hearts were excised and mounted on a Langendorff-type perfusion apparatus. The hearts were perfused via the aorta with oxigenated, thermostated (37° C.) Krebs solution. A constant perfusion pressure of 80 cmH2O was applied. The test compounds were dissolved in the perfusion solution to obtain the requested concentrations.
The basic value of coronary flow was determined. Afterwards the small amount of compounds were added to perfusion liquid and the perfusion was measured for 30 minutes at every 10 minutes. Afterwards 30 minutes perfusion was performed without compound and the measure was repeated with the medium and high amount of compounds.
The effects of same concentration of valdecoxib and compound of example 1 were investigated in 4-4 hearts (1, 3 and 10 μM). Valdecoxib had no effect in either concentration. It can clearly be shown that the coronary flow was increased dose dependently. This effect is advantageous in practice of clinical therapy, because the painful arthritic and degenerative joint and bone deformations are emerged rather in old age, when diseases of the vascular system are also frequently encountered, which can conduce to disorder of vascular bed of the heart.

Assay [4] has as its system inflammatory mechanical allodynia induced by carrageenan. Nature of the assay: Carrageenan-induced inflammatory mechanical allodynia (von Frey). It counts as in vivo, male Sprague-Dawley rats. The following applies: 30 mg/kg p.o. On the procedure:
The-threshold of pain of the animals was measured by von Frey apparatus (IITC, type: 1601 C). […] The values were registered in the times of the pick up or raises. During each measurment the threshold was determined at least thrice and the avarage was calculated from the peak values.
Male Sprague-Dawley rats (weighing 250-300 g) were used (n=5-6/group). 100 μl of saline solution of carrageenant (CA) was injected to the middle of the paw. The stimulus threshold was measured after it, and the treatment was completed with gastro-probe per os. The effects of the materials were measured in 30, 60, 90, 120 minutes after the treatments. The effects were compared for control group treatment with vehicle (solution of 2% Tween-80).
The effect was calculated as follows: [formula] where tx=30, 60, 90, 120 min
In the acute pain model the analgesic effects of the valdecoxib and compound of example 1 were considerable with dose of 30 mg/kg p.o. once.

In assay [5] the test system is carrageenan and kaolin induced monoarthritis. Nature of the assay: Carrageenan and kaolin induced monoarthritis model (incapacitance test). The following applies: 10 mg/kg p.o. Format: in vivo, rats. The method, then: The Incapacitance tester is an apparatus for measure the changes of the functional parameters induced of the pain, which can register the bearing on the hind limb, the amount of the moving and the changing of the centre of gravity. Knee-joint of the right-back limb was treated with solution of 100 μl 2% carrageenan and kaolin. During 3-4 hours after the treatment arthritis was emerged in the capsular ligament of the treated limb. This inflammation still exists at 24 hours after the treatment. Because of the pain the animals coddles the treated limbs, thy weign on it less. Change of weight load is measurable with Incapacitance tester device in grams. The incapacitance was calculated as follows: [formula] Analgesic-antiinflammantory compounds could increase the stimulus threshold of the knee-joint, and consequently to improve the functional parameters of the limb. Measure of this can be counted by the decrease of the loading of left leg i.e. in terms of percentage of reversal. [formula] The Incapacitance induced by administration of irritants in left paw was measured at 4 hour after the injection. Afterwards the animals (n=24-32/group) were. orally treated with dose of 10 mg/kg valdecoxib and test compounds. Measurements were done at 1 and 2 hours after the treatments.

Take `Cc1onc(-c2ccccc2)c1-c1ccc(S(N)(=O)=O)cc1` [valdecoxib, reference compound]: the “edema inhibition effect %” value in assay [1] (0.1 mg/kg p.o., 4 hours after treatment) is given as 29.4%; in assay [1] (0.1 mg/kg p.o., 6 hours after treatment), 25.8%; in assay [1] (0.3 mg/kg p.o., 4 hours after treatment), 34.1%; in assay [1] (0.3 mg/kg p.o., 6 hours after treatment) it was 27.3%; in assay [1] (1.0 mg/kg p.o., 4 hours after treatment), 40.1%; in assay [1] (1.0 mg/kg p.o., 6 hours after treatment) it was 37.8%. Further, the “edema inhibition effect %” value in assay [1] (3.0 mg/kg p.o., 4 hours after treatment) is 47.7%; in assay [1] (3.0 mg/kg p.o., 6 hours after treatment) it was 45.8%. Moreover, the “ED30 of edema inhibition” value in assay [1] (4 hours after treatment) amounted to 0.2 mg/kg; in assay [1] (6 hours after treatment) it was 0.3 mg/kg. The “Analgesic effect in % after p.o. treatment” value in assay [2] (1 hour) was 24.2%; in assay [2] (2 hours), 36.9%; in assay [2] (3 hours), 19.9%; in assay [3] (2 hours), 50.5%; in assay [3] (3 hours), 59.9%; in assay [3] (4 hours), 33.2%. Besides, the “Analgesic effect in % after p.o. treatment” value came out at 69.2% in assay [4] (30 min.), 60.0% in assay [4] (1 hour), 57.7% in assay [4] (1.5 hour) and 47.8% in assay [4] (2 hours). In addition, the “effect on coronary flow (in words)” value in the assay with isolated rabbit heart is recorded as “no effect”. In addition, the results for the “Analgesic effect (% reversal) after p.o. treatment” value in assay [5] (1 hour) and in assay [5] (2 hours) were 52.1 % reversal and 62.4 % reversal, respectively.

The record behind these values is US20070093539A1, “N-hydroxy-4-(3-pheyl-5-methyl-isoxazole-4-yl)-benzenesulfonate solvates” (priority 2003, published 2007).
